According to paper PMC6379104 (Clinical pharmacology and therapeutics, 2018):
Several values for one entry are separate records, joined by “and”; a condition that tells them apart may be missing. Identical values can stand only once. Like-named read-outs stand apart in the source and are kept apart here.

Legend:
[1] = Population pharmacokinetic model of plasma disulfiram and four metabolites
[2] = system: latent HIV in Bcl-2-transduced primary CD4+ T cells; conditions: cited from earlier work
plasma HIV RNA [3] = format: in vivo, HIV-1
clinical = conditions: human, in vivo
[4] = system: cell-associated unspliced (CA-US) HIV RNA; conditions: three consecutive days of DSF at all doses (500, 1000, 2000 mg); cited from earlier work
plasma HIV RNA [5] = conditions: three consecutive days of DSF; cited from earlier work
cell-associated HIV DNA = conditions: three consecutive days of DSF; cited from earlier work
[6] = system: cell-associated unspliced (CA-US) HIV RNA; format: in vivo, HIV-1
[7] = in humans; cited from earlier work
plasma HIV RNA [8] = conditions: DSF 500 mg for 14 days; cited from earlier work
CA-US HIV RNA = conditions: following administration of vorinostat; cited from earlier work
plasma HIV RNA [9] = conditions: following administration of vorinostat; cited from earlier work
[10] = final PK model, estimate (RSE %)
[11] = model estimate at AUC0–72 of 2270 mg*h/L (500 mg dose group median)

## CCN(CC)C(=O)SC[C@H](NC(=O)CC[C@H](N)C(=O)O)C(=O)NCC(=O)O [M4, carbamathione]
[1]; [10]
  Km (Michaelis-Menten constant, concentration at which elimination is half maximal): 543 (4.3) ng/mL
  V (volume of distribution): 0.581 (10.3) L

## CCN(CC)C(=O)[S+](C)[O-] (stereo not drawn) [M3, S-methyl-N,N-diethylthiolcarbamate sulfoxide]
[1]; [10]
  V (volume of distribution): 0.0647 (15.6) L

## CCN(CC)C(=S)SC [M2, diethyldithiocarbamate-methyl ester]
[2]
  activation of latent HIV in vitro: but not M2 (DDTC-Me), reactivated latent HIV
[1]; [10]
  Q (flow from central compartment to periphery): 0.0776 (14.0)
  V (volume of distribution): 0.00404 (8.0) L
  Vperiph (calculated peripheral volume): 28.9 (17.3) L

## CCN(CC)C(=S)SSC(=S)N(CC)CC [DSF, Disulfiram]
Plasma HIV RNA [3]; by day 31, 2000 mg group
  median change in plasma HIV RNA: 1.17 copies/mL
Plasma HIV RNA [3]; during the treatment dosing period, 500 mg group
  median change in plasma HIV RNA: -0.22 copies/mL
Plasma HIV RNA [3]; negative binomial regression models
  exposure-response between AUC0–72 and plasma HIV RNA: a statistically significant exposure-response was not observed
clinical
  Km: 0.217 µg/mL
[2]
  activation of latent HIV in vitro: reactivated latent HIV
[4]
  change in CA-US RNA: statistically significant dose-dependent increases
Plasma HIV RNA [5]
  change in plasma HIV RNA: increased, but only at day 31 and only in participants receiving the highest dose (2000 mg)
cell-associated HIV DNA
  change in CA-DNA: no significant differences
[6]; exposure-response of AUC0–72 on CA-US HIV RNA
  AUC50: 1600 µg·h/L
[6]; increase in CA-US HIV RNA
  Emax: 78%
[6]; increase in CA-US HIV-1 RNA, estimate (RSE %)
  Emax (fraction increase): 78 (13.6)
[6]; [11]
  potential participants achieving >90% of Emax: over 70%
  potential participants achieving less than a third of Emax: 15%
[6]; model estimate at AUC0–72 of 3883 mg*h/L (lowest in 1000 mg dose group)
  potential participants achieving >98% of Emax: 95%
[6]; negative binomial PK/PD models, all three baseline values
  exposure-response relationship of AUC0–72 on CA-US RNA: statistically significant exposure-response relationship
[7]
  estimated half-life: about 7 hours
Plasma HIV RNA [8]
  change in plasma HIV RNA: transient but non-statistically significant increases
[1]; 3 consecutive daily doses
  time by which drug was completely eliminated: ≤ 72 h
[1]; [10]
  BV (%) in CL/F (between-subject variability): 36% and 36 (14) %
  V (volume of distribution): 1.29 (9.1) L
[1]; human, plasma, oral, V (volume of distribution), final PK model, estimate (RSE %)
  Vd: 1.3 L

## CCN(CC)C(=S)S [M1, N,N-diethyldithiocarbamate]
[2]
  activation of latent HIV in vitro: reactivated latent HIV
[1]; [10]
  Km (Michaelis-Menten constant, concentration at which elimination is half maximal): 480 (6.2) ng/mL
  V (volume of distribution): 0.0906 (16.6) L

## O=C(CCCCCCC(=O)Nc1ccccc1)NO [vorinostat]
CA-US HIV RNA
  change in CA-US HIV RNA: significant increases
Plasma HIV RNA [9]
  change in plasma HIV RNA: a significant change in plasma HIV RNA was not observed
